{
  "source": "paper PMC10536189",
  "about": "(Microorganisms, 2023)",
  "key": {"mycobacteria [1]": {"test_system": "mycobacteria", "assay": "TTP in VersaTrek system", "format": "cell-based", "conditions": "Peptide 14D; VersaTrek (ThermoFisher); Figure S1", "description": "(§1) Peptide 14D was used to check if other machines that are routinely used in medical microbiology for the detection of mycobacteria show shorter TTP as well. BacT/Alert (Biomerieux, Marcy-l’Étoile, France and VersaTrek (ThermoFisher, Waltham, MA, United States) were tested, and shorter TTP was shown for both systems (see Figure S1 in the Supplementary Materials)."}, "M. tuberculosis": {"test_system": "M. tuberculosis", "format": "cell-based, Mycobacterium tuberculosis (laboratory strain H37Rv)", "conditions": "for Time to Positivity (Days.Hours) Experiment 2 / Time to Positivity (Days.Hours) Experiment 1: MGIT; for Time to Positivity (Days.Hours) Experiment 2: control (0 µg/mL) 6.12; for Time to Positivity (Days.Hours) Experiment 1: control (0 µg/mL) 6.19; for Average % Faster than Control: average of two independent experiments"}, "[2]": {"test_system": "Mycobacterium tuberculosis (MTB)", "format": "cell-based, Mycobacterium tuberculosis (laboratory strain H37Rv)"}, "[3]": {"test_system": "Mycobacterium avium subsp. paratuberculosis (MAP)", "format": "cell-based"}, "mycobacteria [4]": {"test_system": "mycobacteria", "assay": "TTP in BacT/Alert system", "format": "cell-based", "conditions": "Peptide 14D; BacT/Alert (Biomerieux); Figure S1", "description": "as §1"}, "MTB H37Rv": {"test_system": "MTB H37Rv", "format": "cell-based, Mycobacterium tuberculosis H37Rv", "conditions": "14D at 1 µg/mL"}},
  "note": "Like-named read-outs stand apart in the source and are kept apart here.",
  "data": [
    {"substance": "wkivfwwrr-CONH2 [Peptide 14D]", "values": [
      {"measurement": "Effect on TTP", "setting": "mycobacteria [1]", "value": "shorter TTP"},
      {"measurement": "Time to Positivity (Days.Hours) Experiment 2", "setting": "M. tuberculosis; Peptide 14D 0.1 µg/mL", "value": 5.19, "unit": "Days.Hours"},
      {"measurement": "Time to Positivity (Days.Hours) Experiment 1", "setting": "M. tuberculosis; Peptide 14D 0.1 µg/mL", "value": 5.12, "unit": "Days.Hours"},
      {"measurement": "Average % Faster than Control", "setting": "M. tuberculosis; Peptide 14D 0.1 µg/mL", "value": 15.0, "unit": "%"},
      {"measurement": "Time to Positivity (Days.Hours) Experiment 2", "setting": "M. tuberculosis; Peptide 14D 0.5 µg/mL", "value": 5.17, "unit": "Days.Hours"},
      {"measurement": "Time to Positivity (Days.Hours) Experiment 1", "setting": "M. tuberculosis; Peptide 14D 0.5 µg/mL", "value": 5.17, "unit": "Days.Hours"},
      {"measurement": "Average % Faster than Control", "setting": "M. tuberculosis; Peptide 14D 0.5 µg/mL", "value": 14.1, "unit": "%"},
      {"measurement": "Time to Positivity (Days.Hours) Experiment 2", "setting": "M. tuberculosis; Peptide 14D 1 µg/mL", "value": 5.08, "unit": "Days.Hours"},
      {"measurement": "Time to Positivity (Days.Hours) Experiment 1", "setting": "M. tuberculosis; Peptide 14D 1 µg/mL", "value": 5.05, "unit": "Days.Hours"},
      {"measurement": "Average % Faster than Control", "setting": "M. tuberculosis; Peptide 14D 1 µg/mL", "value": 21.6, "unit": "%"},
      {"measurement": "Increase of time to positivity, first experiment", "setting": "M. tuberculosis; Peptide 14D 10 µg/mL", "value": 8, "unit": "h"},
      {"measurement": "Increase of time to positivity, second experiment", "setting": "M. tuberculosis; Peptide 14D 10 µg/mL", "value": 20, "unit": "h"},
      {"measurement": "Time to Positivity (Days.Hours) Experiment 2", "setting": "M. tuberculosis; Peptide 14D 10 µg/mL", "value": 7.08, "unit": "Days.Hours"},
      {"measurement": "Time to Positivity (Days.Hours) Experiment 1", "setting": "M. tuberculosis; Peptide 14D 10 µg/mL", "value": 7.03, "unit": "Days.Hours"},
      {"measurement": "Average % Faster than Control", "setting": "M. tuberculosis; Peptide 14D 10 µg/mL, negative = slower", "value": "−7.3", "unit": "%"},
      {"measurement": "Time to Positivity (Days.Hours) Experiment 2", "setting": "M. tuberculosis; Peptide 14D 25 µg/mL", "value": 9.17, "unit": "Days.Hours"},
      {"measurement": "Time to Positivity (Days.Hours) Experiment 1", "setting": "M. tuberculosis; Peptide 14D 25 µg/mL", "value": 9.21, "unit": "Days.Hours"},
      {"measurement": "Average % Faster than Control", "setting": "M. tuberculosis; Peptide 14D 25 µg/mL, negative = slower", "value": "−48.7", "unit": "%"},
      {"measurement": "Delay of growth (days to reach positivity relative to control)", "setting": "M. tuberculosis; Peptide 14D 50 µg/mL", "value": "about triple"},
      {"measurement": "Time to Positivity (Days.Hours) Experiment 1", "setting": "M. tuberculosis; Peptide 14D 50 µg/mL", "value": 19.15, "unit": "Days.Hours"},
      {"measurement": "Average % Faster than Control", "setting": "M. tuberculosis; Peptide 14D 50 µg/mL, negative = slower", "value": "−207.6", "unit": "%"},
      {"measurement": "Concentration at which growth inhibition of MTB is observed", "setting": "[2]", "value": "≥ 10", "unit": "µg/mL"},
      {"measurement": "Concentration with strong sustained growth stimulation of MTB", "setting": "[2]", "value": 1, "unit": "µg/mL"},
      {"measurement": "Growth enhancement after the peptide was removed", "setting": "[3]", "value": "reversible"},
      {"measurement": "Effect on growth of MAP (growth-enhancing activity) of protease-stabilised peptides", "setting": "[3]; peptide 10 µg/mL, absorbance at 600 nm", "value": "small improvement in activity"},
      {"measurement": "Effect on TTP", "setting": "mycobacteria [4]", "value": "shorter TTP"},
      {"measurement": "Copy number compared with MTB control", "setting": "MTB H37Rv", "value": "higher copy number"},
      {"measurement": "Copy number", "setting": "MTB H37Rv; […], duplicates, cydA Taqman qPCR", "value": 1762000}
    ]}
  ]
}
